In patent publication US20230374038A1, “MODULATORS OF CYSTIC FIBROSIS TRANSMEMBRANE CONDUCTANCE REGULATOR” (VERTEX PHARMACEUTICALS INCORPORATED, priority 2020, published 2023):

What was measured:
CFTR [1] = biological target: T1, CFTR (Homo sapiens, UniProt P13569, DEL508-508); assay: HBE Assay: Ussing chamber assay of CFTR-mediated short-circuit currents in F508del/MF-HBE cells with 1 μM Ivacaftor; type: cell-based; settings: 20% human serum; for HBE Activity at 10 μM: single fixed concentration of 10 μM; for EC50 / HBE Max Activity / Emax: 18-24 hours; for Emax: compared to known Vertex corrector with 18 μM Tezacaftor and 1 μM Ivacaftor, read-out: HBE Max activity (%)
T1 construct: endogenous in cells; host or cells: primary human bronchial epithelial cells, F508del/MF genotype
Method: Ussing chamber experiments were performed using human bronchial epithelial (HBE) cells derived from CF subjects heterozygous for F508del and a minimal function CFTR mutation (F508del/MF-HBE) and cultured as previously described (Neuberger T, Burton B, Clark H, Van Goor F Methods Mol Biol 2011:741:39-54). After four days the apical media was removed, and the cells were grown at an air liquid interface for >14 days prior to use.
(§1) To isolate the CFTR-mediated short-circuit (ISC) current, F508del/MF-HBE grown on Costar® Snapwell™ cell culture inserts were mounted in an Ussing chamber and the transepithelial ISC was measured under voltage-clamp recording conditions (Vhold=0 mV) at 37° C. The basolateral solution contained (in mM) 145 NaCl, 0.83 K2HIPO4, 3.3 KH2PO4, 1.2 MgCl2, 1.2 CaCl2), 10 Glucose, 10 HEPES (pH adjusted to 7.4 with NaOH) and the apical solution contained (in mM) 145 NaGluconate, 1.2 MgCl2, 1.2 CaCl2), 10 glucose, 10 HEPES (pH adjusted to 7.4 with NaOH) and 30 μM amiloride to block the epithelial sodium channel. Forskolin (20 μM) was added to the apical surface to activate CFTR, followed by apical addition of a CFTR inhibitor cocktail consisting of BPO, GlyH-101, and CFTR inhibitor 172 (each at 20 μM final assay concentration) to specifically isolate CFTR currents. The CFTR-mediated ISC (μA/cm^2) for each condition was determined from the peak forskolin response to the steady-state current following inhibition.
The activity of the CFTR corrector compounds on the CFTR-mediated ISC was determined in Ussing chamber studies as described above. The F508del/MF-HBE cell cultures were either incubated with the corrector compounds at a range of concentrations in combination with 1 μM Ivacaftor or were incubated with the corrector compounds at a single fixed concentration of 10 μM in combination with 1 μM Ivacaftor for 18-24 hours at 37° C. and in the presence of 20% human serum. The concentration of corrector compounds with 1 μM Ivacaftor during the 18-24 hours incubations was kept constant throughout the Ussing chamber measurement of the CFTR-mediated ISC to ensure compounds were present throughout the entire experiment.
as §1, with “K2HPO4,” for “K2HIPO4,”

CFTR [2] = biological target: CFTR (Homo sapiens, UniProt P13569); assay: Membrane Potential Dye, Enteroid Assay B; type: cell-based; settings: for EC50: read-out: Ent. B EC50
Summary of the method: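 Human intestinal enteroids seeded at 5000 cells/well, treated with compound 18-24 h at 37 °C, then loaded 25 min with methyl oxonol membrane-potential dye plus CaCC blockers. Chloride transport started in chloride-free buffer with 10 μM forskolin, 100 μM IBMX and 300 nM Compound III, read 15 min; expressed as % of triple-combination control.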

[3] = range of concentrations with 1 μM Ivacaftor

CFTR (Homo sapiens, UniProt P13569), sequence (P13569 with tags, fused parts or gaps DEL508-508): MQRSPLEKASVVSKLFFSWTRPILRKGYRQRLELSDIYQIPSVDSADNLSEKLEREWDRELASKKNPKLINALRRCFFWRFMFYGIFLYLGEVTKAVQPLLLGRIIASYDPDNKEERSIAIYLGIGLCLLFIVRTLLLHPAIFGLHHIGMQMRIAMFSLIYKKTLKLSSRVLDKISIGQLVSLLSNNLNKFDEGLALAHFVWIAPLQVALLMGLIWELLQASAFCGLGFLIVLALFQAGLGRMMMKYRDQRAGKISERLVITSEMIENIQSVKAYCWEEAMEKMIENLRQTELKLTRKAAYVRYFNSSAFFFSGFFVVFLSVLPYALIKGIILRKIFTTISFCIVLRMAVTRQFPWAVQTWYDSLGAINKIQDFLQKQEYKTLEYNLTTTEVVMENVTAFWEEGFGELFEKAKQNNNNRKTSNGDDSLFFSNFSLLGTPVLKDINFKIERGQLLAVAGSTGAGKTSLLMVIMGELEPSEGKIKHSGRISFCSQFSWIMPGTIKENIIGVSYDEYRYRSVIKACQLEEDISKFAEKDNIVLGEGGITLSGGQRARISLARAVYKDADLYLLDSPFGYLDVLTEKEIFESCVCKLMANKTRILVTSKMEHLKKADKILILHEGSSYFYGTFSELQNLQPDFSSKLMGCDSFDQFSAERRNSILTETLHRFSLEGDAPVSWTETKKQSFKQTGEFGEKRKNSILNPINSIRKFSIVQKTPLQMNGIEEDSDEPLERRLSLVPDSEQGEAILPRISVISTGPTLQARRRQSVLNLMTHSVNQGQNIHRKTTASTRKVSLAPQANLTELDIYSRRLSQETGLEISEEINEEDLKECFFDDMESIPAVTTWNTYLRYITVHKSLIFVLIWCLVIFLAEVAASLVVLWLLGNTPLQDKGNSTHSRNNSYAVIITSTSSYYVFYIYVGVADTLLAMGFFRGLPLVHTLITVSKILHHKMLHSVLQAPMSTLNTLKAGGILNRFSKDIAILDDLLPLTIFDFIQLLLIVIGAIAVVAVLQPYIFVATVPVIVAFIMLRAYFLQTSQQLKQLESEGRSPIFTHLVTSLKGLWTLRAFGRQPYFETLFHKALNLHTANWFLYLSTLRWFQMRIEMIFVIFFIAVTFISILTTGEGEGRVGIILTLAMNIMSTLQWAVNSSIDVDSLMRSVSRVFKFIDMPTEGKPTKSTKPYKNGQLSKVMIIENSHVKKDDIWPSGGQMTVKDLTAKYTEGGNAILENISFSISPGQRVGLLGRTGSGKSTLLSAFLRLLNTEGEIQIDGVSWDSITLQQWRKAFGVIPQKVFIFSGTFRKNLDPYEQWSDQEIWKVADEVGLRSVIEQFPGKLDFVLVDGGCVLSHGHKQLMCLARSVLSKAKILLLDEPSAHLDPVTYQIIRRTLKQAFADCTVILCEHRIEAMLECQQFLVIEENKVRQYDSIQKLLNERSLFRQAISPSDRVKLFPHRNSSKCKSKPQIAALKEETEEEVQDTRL
T1 sequence (P13569 with tags, fused parts or gaps DEL508-508): as above

SMILES	EC50 (CFTR [1]; with 1 μM Ivacaftor) [nM]	HBE Max Activity (CFTR [1]; with 1 μM Ivacaftor)	also measured
Cc1cccc(C)c1-c1nc2nc(c1C)OC[C@@H](C(C)C)N(Cc1ncc(OC(C)C)cn1)C(=O)c1cccc(c1)S(=O)(=O)N2 [Compound 197]	–	–	HBE Activity at 10 μM (CFTR [1]; with 1 μM Ivacaftor): +++ (+++ is >600%)
Cc1cccc(CC2CCCC2)c1-c1nc2nc(c1C)OC[C@@H](CC(C)(C)C)N(Cc1ncc(N3CCC(C)(C)C3)cn1)C(=O)c1cccc(c1)S(=O)(=O)N2 (atropisomer, axis not shown) [Compound 270]	–	–	HBE Activity at 10 μM (CFTR [1]; with 1 μM Ivacaftor): +++ (+++ is >600%)
Cc1cccc(CC(C)C)c1-c1nc2nc(c1C(F)(F)F)OC[C@@H](CC(C)(C)C)N(Cc1ccc(N3CCOCC3)cn1)C(=O)c1cccc(c1)S(=O)(=O)N2 (atropisomer, axis not shown) [Compound 247]	–	–	HBE Activity at 10 μM (CFTR [1]; with 1 μM Ivacaftor): ++ (++ is 30-60%)
Cc1cccc(CC2CCCCC2)c1-c1nc2nc(c1C)OC[C@@H](CC(C)(C)C)N(Cc1ncc(C3CCOCC3)cn1)C(=O)c1cccc(c1)S(=O)(=O)N2 [Compound 251]	< 1000	+++ (+++ is >600%)	–
Cc1cccc(CC(C)C)c1-c1nc2nc(c1C)OC[C@@H](CC(C)C)N(Cc1nccc(N(C)C(C)C)n1)C(=O)c1cccc(c1)S(=O)(=O)N2 (atropisomer, axis not shown) [Compound 231]	–	–	HBE Activity at 10 μM (CFTR [1]; with 1 μM Ivacaftor): +++ (+++ is >600%)
Cc1cccc(CC2CCCCC2)c1-c1nc2nc(c1C)OC[C@@H](CC(C)(C)C)N(Cc1ccc(N3CCCCC3)cn1)C(=O)c1cccc(c1)S(=O)(=O)N2 (atropisomer, axis not shown) [Compound 307]	< 1000	+++ (+++ is >600%)	–
Cc1cccc(C(C)C)c1-c1nc2nc(c1C)OC[C@@H](CC(C)(C)C)N(Cc1ccc(N3CCOCC3)cn1)C(=O)c1cccc(c1)S(=O)(=O)N2 (atropisomer, axis not shown) [Compound 300]	< 1000	+++ (+++ is >600%)	–
Cc1cccc(CC2CCCCC2)c1-c1nc2nc(c1C)OC[C@@H](CC(C)(C)C)N(Cc1ncc(N(C)C)cn1)C(=O)c1cccc(c1)S(=O)(=O)N2 (atropisomer, axis not shown) [Compound 303]	< 1000	+++ (+++ is >600%)	–
Cc1cccc(CC2CCCCC2)c1-c1nc2nc(c1C)OC[C@@H](CC(C)(C)C)N(Cc1ncc(N(C)CC(C)(C)C)cn1)C(=O)c1cccc(c1)S(=O)(=O)N2 (atropisomer, axis not shown) [Compound 282]	1000 to 3000	+++ (+++ is >600%)	–
Cc1c2nc(nc1-c1ccccc1C(C)C)NS(=O)(=O)c1cccc(c1)C(=O)N(Cc1ccc(N3CCOCC3)cn1)[C@H](CC(C)(C)C)CO2 [Compound 182]	< 1000	+++ (+++ is >600%)	–
Cc1cccc(CC2CCCCC2)c1-c1nc2nc(c1C)OC[C@@H](CC(C)(C)C)N(Cc1ncc(C3CCCCC3)cn1)C(=O)c1cccc(c1)S(=O)(=O)N2 (atropisomer, axis not shown) [Compound 276]	< 1000	+++ (+++ is >600%)	–
COc1c2nc(nc1-c1c(C)cccc1C)NS(=O)(=O)c1cccc(c1)C(=O)N(Cc1ncc(OC3CCC3)cn1)[C@H](CC(C)C)CO2 [Compound 349]	–	–	EC50 (CFTR [1]; [3]): < 1000 nM; Emax (CFTR [1]; with 1 μM Ivacaftor): > 60%
Cc1cccc(CC2CCCCC2)c1-c1nc2nc(c1C)OC[C@@H](CC(C)(C)C)N(Cc1ncc(N3CCOCC3)cn1)C(=O)c1cccc(c1)S(=O)(=O)N2 (atropisomer, axis not shown) [Compound 305]	< 1000	+++ (+++ is >600%)	–
Cc1cccc(C)c1-c1nc2nc(c1F)OC[C@@H](CC1CC1)N(Cc1ncc(OC(C)C)cn1)C(=O)c1cccc(c1)S(=O)(=O)N2 [Compound 343]	–	–	EC50 (CFTR [1]; [3]): 1000 to 3000 nM; Emax (CFTR [1]; with 1 μM Ivacaftor): > 60%
COCCN(C)c1ccc(CN2C(=O)c3cccc(c3)S(=O)(=O)Nc3nc(c(C)c(-c4c(C)cccc4CC4CCCCC4)n3)OC[C@H]2CC(C)(C)C)nc1 (atropisomer, axis not shown) [Compound 290]	< 1000	+++ (+++ is >600%)	–
COCCN(C)c1cnc(CN2C(=O)c3cccc(c3)S(=O)(=O)Nc3nc(c(C)c(-c4c(C)cccc4CC(C)C)n3)OC[C@H]2CC(C)(C)C)nc1 (atropisomer, axis not shown) [Compound 293]	–	–	HBE Activity at 10 μM (CFTR [1]; with 1 μM Ivacaftor): +++ (+++ is >600%)
Cc1cccc(CC2CCCCC2)c1-c1nc2nc(c1C)OC[C@@H](CC(C)(C)C)N(Cc1ncc(N(C)C)cn1)C(=O)c1cccc(c1)S(=O)(=O)N2 (atropisomer, axis not shown) [Compound 304]	< 1000	+++ (+++ is >600%)	–
Cc1cccc(C(C)C)c1-c1nc2nc(c1C)OC[C@@H](CC(C)(C)C)N(Cc1cnc(C3CCOCC3)cn1)C(=O)c1cccc(c1)S(=O)(=O)N2 (atropisomer, axis not shown) [Compound 318]	–	–	HBE Activity at 10 μM (CFTR [1]; with 1 μM Ivacaftor): +++ (+++ is >600%)
Cc1cccc(C)c1-c1nc2nc(c1F)OC[C@@H](CC(C)(C)C)N(Cc1ncc(N3CCC(C)(C)C3)cn1)C(=O)c1cccc(c1)S(=O)(=O)N2 [Compound 341]	–	–	EC50 (CFTR [1]; [3]): < 1000 nM; Emax (CFTR [1]; with 1 μM Ivacaftor): > 60%
Cc1cccc(CC(C)C)c1-c1nc2nc(c1C)OC[C@@H](CC(C)(C)C)N(Cc1ncc(OC(C)C)cn1)C(=O)c1cccc(c1)S(=O)(=O)N2 (atropisomer, axis not shown) [Compound 233]	< 1000	+++ (+++ is >600%)	–
Cc1cccc(CC(C)C)c1-c1nc2nc(c1C)OC[C@@H](CC(C)(C)C)N(Cc1ncc(N(C)CC(C)(C)C)cn1)C(=O)c1cccc(c1)S(=O)(=O)N2 (single isomer, unassigned) [Compound 211]	< 1000	+++ (+++ is >600%)	–
Cc1cccc(C)c1-c1nc2nc(c1C)O[C@H](C)CNC(=O)c1cccc(c1)S(=O)(=O)N2 [Compound 202]	–	–	Ent. B Max Activity (CFTR [2]): ++ (++ is 30-60%); EC50 (CFTR [2]): 1000 to 3000 nM
Cc1cccc(C)c1-c1nc2nc(c1C1=CCOCC1)O[C@H](C)CNC(=O)c1cccc(c1)S(=O)(=O)N2 [Compound 152]	–	–	Ent. B Max Activity (CFTR [2]): ++ (++ is 30-60%); EC50 (CFTR [2]): 3000 to 30000 nM
Cc1cccc(C)c1-c1nc2nc(c1C)OC[C@@H](CC(C)(C)O)NC(=O)c1cccc(c1)S(=O)(=O)N2 [Compound 105, (11R)-6-(2,6-Dimethylphenyl)-11-(2-hydroxy-2-methyl-propyl)-7-methyl-2,2-dioxo-9-oxa-2λ^6-thia-3,5,12,19-tetrazatricyclo[12.3.1.14,8]nonadeca-1(18),4(19),5,7,14,16-hexaen-13-one]	–	–	Ent. B Max Activity (CFTR [2]): +++ (+++ is >60%); EC50 (CFTR [2]): 3000 to 30000 nM
Cc1cccc(C)c1-c1nc2nc(c1C1=CCOCC1)OC[C@@H](C)NC(=O)c1cccc(c1)S(=O)(=O)N2 [Compound 140]	–	–	Ent. B Max Activity (CFTR [2]): ++ (++ is 30-60%); EC50 (CFTR [2]): 3000 to 30000 nM
Cc1cccc(C)c1-c1nc2nc(c1C)OC[C@@H](CC1(C(F)(F)F)CC1)N(C1CC3(CC(N)C3)C1)C(=O)c1cccc(c1)S(=O)(=O)N2 (stereo partly shown) [Compound 92]	–	–	Ent. B Max Activity (CFTR [2]): +++ (+++ is >60%); EC50 (CFTR [2]): < 1000 nM
